Results: patent US10744104B2, “Neprilysin inhibitors” (THERAVANCE BIOPHARMA R&D IP, LLC, priority 2011, dated 2020)

What was measured:
[1] = target: T1, NEP (Homo sapiens (Human), UniProt P08473); test: Assay 1: in vitro enzyme inhibition assay at human NEP (fluorogenic peptide substrate); assay type: biochemical; settings: for pKi: comparative examples, exact values
Experimental: The assays were performed in 384-well white opaque plates at 37° C. using the fluorogenic peptide substrates at a concentration of 10 μM in Assay Buffer (NEP: 50 mM HEPES, pH 7.5, 100 mM NaCl, 0.01% polyethylene glycol sorbitan monolaurate (Tween-20), 10 μM ZnSO4; ACE: 50 mM HEPES, pH 7.5, 100 mM NaCl, 0.01% Tween-20, 1 μM ZnSO4).
Test compounds were assayed over the range of concentrations from 10 μM to 20 pM. Test compounds were added to the enzymes and incubated for 30 minute at 37° C. prior to initiating the reaction by the addition of substrate. Reactions were terminated after 20 minutes of incubation at 37° C. by the addition of glacial acetic acid to a final concentration of 3.6% (v/v).
Inhibition constants were obtained by nonlinear regression of the data using the equation (GraphPad Software, Inc., San Diego, Calif.): v=v0/[1+(I/K′)] where v is the reaction rate, v0 is the uninhibited reaction rate, I is the inhibitor concentration and K′ is the apparent inhibition constant.

[2] = target: T1, NEP; settings: change of carboxylic acid chain length versus succinic acid compound 21a; cited from earlier work

SMILES | pKi [1] | decrease in activity relative to 21a [2] [fold] | further results
O=C(O)CCCC(=O)N[C@H](Cc1ccc(-c2ccccc2)cc1)CC(O)C(=O)O (stereo partly drawn) [Comparative Compound E, (R)-5-Biphenyl-4-yl-4-(4-carboxybutrylamino)-2-hydroxypentanoic Acid] | 7.3 | – | –
O=C(O)CCCC(=O)N[C@H](Cc1ccc(-c2ccccc2)cc1)C[C@@H](CO)C(=O)O [Comparative Compound H, (2S,4S)-5-Biphenyl-4-yl-4-(4-carboxy-butyrylamino)-2-hydroxmethylpentanoic Acid] | 8.6 | – | –
O=C(N[C@H](Cc1ccc(-c2cccc(Cl)c2)cc1)C[C@@H](O)C(=O)O)C(=O)OCCC(F)(F)F [Example 2N, (2R,4R)-5-(3′-Chlorobiphenyl-4-yl)-2-hydroxy-4-[(3,3,3-trifluoropropoxyoxalyl)-amino]pentanoic Acid] | – | – | Ki ([1]; reported as ranges): ≤ 1 nM
C[C@H](C[C@@H](Cc1ccc(-c2ccccc2)cc1)NC(=O)CCCC(=O)O)C(=O)O [Example 21e] | – | 18 | –
C[C@H](C[C@@H](Cc1ccc(-c2ccccc2)cc1)NC(=O)CCCCC(=O)O)C(=O)O [Example 21f] | – | 65 | –
C[C@H](CC(Cc1ccc(-c2ccccc2)cc1)NC(=O)CC(=O)O)C(=O)O (stereo partly drawn) [Example 21g] | – | 18 | –
